We go through 20 compounds from PubChem BioAssay (NCI).

What all share (assay): inhibition of tumour cell growth, NCI panel, 48 h
Experiment [1] has as its system SK-MEL-28 melanoma.
In experiment [2] the test system is NCI-H522 lung.
The test system of experiment [3] is KM20L2 colon.
The subject of experiment [4] is CCRF-CEM leukemia.
For experiment [5], the system named is EKVX NSCLC.
Experiment [6] relates to HL-60(TB) leukemia.
The subject of experiment [7] is SW-620 colon.
The test system of experiment [8] is DLD-1 colon.
The test system of experiment [9] is HS 578T breast.
For experiment [10], the system named is T-47D breast.

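Results reflect a 48-hour exposure of cells in 96-well plates to compound at five concentrations. Here, GI50 denotes the concentration required for 50% inhibition of growth. TGI: total growth inhibition.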

As to `NC(=S)N/N=C/C(O[C@@H](/C=N/NC(N)=S)CO)n1cnc2c(N)ncnc21` (some centres not stated), the TGI in [1] is above 100 µM; in experiment [2], above 72.4 µM; in experiment [3], above 100 µM; in experiment [4], above 100 µM; in [5], above 100 µM; in [6], above 100 µM. The compound further showed a TGI in experiment [7] above 53.7 µM.

For `COc1ccc(C(=O)C(c2ccc(OC)cc2)C2(O)C(=O)Nc3c(Cl)cc(Cl)cc32)cc1` (configuration not stated), the TGI in experiment [1] was found to be 44.4 µM; in [2] it was 35.2 µM; in [3] it was 68 µM; in [8], 39.3 µM; in [4] it was 44.2 µM; in [5] it was 38.9 µM. Further, the TGI in experiment [6] was 19.7 µM; in [7], 39.1 µM.

With `O=C(CC(=O)N1N=C(n2ccc3ccccc32)CC1c1ccccc1)Nc1ccccc1Cl` (configuration not stated), the TGI in experiment [1], in [2], in experiment [3], in experiment [4], in experiment [5] and in [6] was above 100 µM in each case. The compound further returned a TGI in experiment [7] above 100 µM.

For the compound `C=C1C2CCCC1C1(S(C)(=O)=O)CCCCC21O` (configuration not stated), the TGI in experiment [1], in [2], in experiment [3], in experiment [8], in experiment [5] and in [7] was above 100 µM each time.

In the case of `CCP(C)(=O)CC`, the TGI in experiment [1], in experiment [3], in experiment [8], in [4], in [5] and in experiment [6] was above 100 µM throughout. The compound also displayed a TGI in experiment [7] above 100 µM.

Take `COc1c(CC(C)=O)c2ccccc2n1C(C)=O`: the TGI in experiment [1], in [3], in experiment [8], in [4], in experiment [5] and in [6] was above 100 µM each time. Also, in [7], the TGI is above 100 µM.

On to `O=C1CCC2(c3ccccc3)OCC([C@@H](O)c3ccccc3)N12` (some centres not stated), for which the TGI in experiment [1], in experiment [3], in [8], in [4], in [5] and in [7] was above 100 µM in each case.

Consider `Cc1cc(C)c([O-])c(-[n+]2c(-c3ccccc3)cc(-c3ccccc3)cc2-c2ccccc2)c1`, for which the TGI stood at 14.2 µM in experiment [1]; 12.9 µM in experiment [3]; 16.7 µM in experiment [8]; 10.1 µM in experiment [4]; 21.4 µM in experiment [5]; 4.16 µM in experiment [6]. Further, the TGI in experiment [7] came to 15.7 µM.

For `O=c1[nH]c(-c2ccccc2)nc2cc([N+](=O)[O-])c(/C(Cl)=C/c3ccccc3)cc12`, the TGI in experiment [1] was above 100 µM; in experiment [2], 81.7 µM; in experiment [3], above 100 µM; in [5], above 100 µM; in experiment [7], above 100 µM.

For the compound `COC12OCCN(C)C1=CC(=O)C1N=NCC12` (configuration not stated), the TGI in experiment [1], in experiment [2], in experiment [8], in experiment [4], in experiment [5] and in [6] was above 100 µM each time. In addition, in [7], the TGI was above 100 µM.

As to `COc1cc2c3c(n(CCCNCCCCN)c(=O)c2cc1OC)-c1cc2c(cc1C3=O)OCO2`, the GI50 was 4.49 µM in experiment [1]; 3.76 µM in experiment [9]; 5.64 µM in experiment [2]; 3.11 µM in experiment [10]; 18.6 µM in [5]; 0.335 µM in experiment [6]. For the same compound, the GI50 in experiment [7] is 1.4 µM. Moreover, the TGI in experiment [1] was above 54.2 µM; in [9] it was 16.1 µM; in [2], above 100 µM; in [4], above 40.1 µM; in [10] it was 27.1 µM; in experiment [5], 42.7 µM. Besides, the TGI in [7] amounted to 27.3 µM.

On to `CC1(C)CCC2(C(=O)O)C(O)CC3(C)C(=CCC4C5(C)CCC(OC6OCC(O)C(O)C6OC6OCC(O)C(O)C6OC6OCC(O)C(OC7OC(CO)C(O)C(O)C7O)C6O)C(C)(C)C5CCC43C)C2C1` (configuration not stated), for which the TGI was above 100 µM in experiment [1]; above 100 µM in experiment [9]; 49.4 µM in experiment [2]; 71.9 µM in [4]; above 100 µM in experiment [10]; above 100 µM in experiment [5]. Also, the TGI in experiment [6] is 48.3 µM; in [7], above 100 µM.

For the compound `C/C(=N\O)C1CC(CC(=O)O)C1(C)C` (configuration not stated), the TGI in experiment [1], in experiment [9], in experiment [2], in experiment [4], in experiment [10] and in experiment [5] was above 100 µM throughout. Besides, the TGI in experiment [6] and in experiment [7] was above 100 µM in each case.

Consider `C=C1CC[C@@](C)(c2cc(Br)c(C)cc2OC(C)=O)[C@H]1C`, for which the GI50 in [1] is 11.7 µM; in experiment [9], 19.3 µM; in [2], 15 µM; in [4], 8.88 µM; in experiment [10] it was 10.7 µM; in experiment [5] it was 14.7 µM. In addition, the GI50 in experiment [6] is 11.9 µM; in [7], 11.8 µM. The TGI in [1] came out at 24 µM; in experiment [9], 42.5 µM; in experiment [2] it was 31.4 µM; in experiment [4], 26.6 µM; in experiment [10] it was 27.8 µM; in [5] it was 28.2 µM. Further, the results for the TGI in [6] and in experiment [7] were 28.2 µM and 24.6 µM, respectively.

On to `COc1cccc(N2C(=N)/C(=C3\Nc4ccccc4S3)CC2=O)c1`, for which the GI50 is above 100 µM in experiment [1]; 27.5 µM in experiment [9]; 8.22 µM in experiment [2]; 1.91 µM in experiment [4]; 18.9 µM in experiment [10]; above 100 µM in experiment [5]. Also, the values for the GI50 in experiment [6] and in experiment [7] were 4.85 µM and 4.87 µM, respectively. The TGI in [1], in [9], in experiment [2], in experiment [4], in experiment [10] and in experiment [5] was above 100 µM each time. The TGI in experiment [6] and in experiment [7] was above 100 µM each time.

Consider `Cc1ccc(/C=C(/C#N)n2nnc3cccc(F)c32)cc1`, for which the GI50 was 0.902 µM in [1]; 0.373 µM in experiment [9]; 0.194 µM in [2]; 0.389 µM in experiment [4]; 0.509 µM in experiment [10]; 0.863 µM in experiment [5]. Further, the GI50 in experiment [6] was 0.295 µM; in experiment [7], 0.354 µM. The TGI in [1] was 18.1 µM; in experiment [9], above 36.8 µM; in experiment [2] it was 14.9 µM; in [4], above 100 µM; in experiment [10], above 100 µM; in experiment [5], 18.7 µM. For the same compound, the TGI in [6] was determined as 4.42 µM; in experiment [7] it was 5.53 µM.

As to `CC(C)(Oc1cccc(N2CCC[C@@H](C(=O)N(Cc3ccc(-c4cn[nH]c4)cc3)C3CC3)C2)c1)C(=O)N1CCNCC1`, the GI50 was 13.1 µM in [1]; 5.14 µM in experiment [9]; 12.3 µM in [2]; 24.1 µM in [4]; 12.6 µM in experiment [10]; 13.7 µM in experiment [5]. Moreover, the GI50 is 13.8 µM in experiment [6] and 15.5 µM in [7]. Besides, the TGI in experiment [1] is 26.1 µM; in experiment [9], 29.4 µM; in experiment [2] it was 26 µM; in experiment [4] it was above 100 µM; in experiment [10], 34.3 µM; in experiment [5] it was 27.9 µM. Moreover, the TGI in experiment [6] is above 100 µM; in experiment [7], 31.5 µM.

Regarding `Cc1[nH]c(N)nc(=S)c1CCCNc1ccccc1`, the TGI in experiment [1], in experiment [9], in [2], in experiment [4], in [10] and in [5] was above 100 µM in each case. Besides, the TGI in [6] and in experiment [7] was above 100 µM throughout.

With `CCOC(=O)C1(C)C2=CC=C(O2)C(C)(C)C2=CC=C(O2)C(C)(C)C2=CC=C(O2)C(C)(C)C2=CC=C1O2`, the TGI in experiment [1], in [2], in [3], in [4], in experiment [5] and in [6] was above 100 µM throughout. The TGI in [7] is above 100 µM.

Take `CN1C(=O)[C@@H](CC2CCCC2)N(C2CCCC2)c2nc(Nc3cc(Cl)c(O)c(Cl)c3)ncc21`: the GI50 in experiment [1] was 22.6 µM; in [9], 21.6 µM; in [2] it was 10.8 µM; in experiment [4], 18.6 µM; in experiment [10], 12.9 µM; in [5] it was 22.4 µM. The GI50 in experiment [6] was 10.3 µM; in [7] it was 28.2 µM. For the same compound, the TGI in [1] was above 100 µM; in experiment [9] it was above 100 µM; in [2], above 100 µM; in experiment [4], 84.2 µM; in [10], 74.9 µM; in [5] it was above 100 µM. Also, the TGI in experiment [6] is 58.1 µM; in [7], above 100 µM.
